# From patent US20060270709A1 (priority 2005, published 2006)
# How the values were obtained:
# [1] = test system: hypoxia-induced neurodegeneration in CA1 region of organotypic hippocampal slice cultures; experiment: Hypoxia-induced neurodegeneration in organotypic hippocampal slice cultures; type: cell-based, Wistar rat
# Procedure: (§1) Organotypic hippocampal slice cultures were prepared using the basic method of Pringle et al, Brain Research, 755:36-46 (1997) modified as follows. Wistar rat pups (8-11 days old) were decapitated and the hippocampus rapidly dissected into ice-cold Gey's balanced salt solution supplemented with 4.5 mg/ml glucose. Transverse sections (400 μm) were cut on a McIlwain tissue chopper and placed back into ice-cold Gey's balanced salt solution. Slices were separated and plated onto Millicell CM culture inserts (4 per well) and maintained at 37° C./5% CO2 for 14 days. […] Medium was changed every 3-4 days.
# (§2) PI fluorescence was detected using a Leica DMIL inverted microscope fitted with a rhodamine filter set. Any cultures in which PI fluorescence was detected at this stage were excluded from further study. […] Neuronal damage was assessed by PI fluorescence imaging 24 hours after the initiation of the neurotoxic insult. Neurotoxicity protocols are outlined below.
# (3) Hypoxia: Hypoxia was performed by exposing cultures to oxygen-deprivation as described previously. Pringle et al, Brain Research, 755:36-46 (1997); Pringle et al, Stroke, 27:2124-2130 (1996). Hypoxia was induced by transferring cultures to SFM (+PI) which had been saturated with 95% N2/5% CO2. Culture plates (without lids) were then sealed into an airtight chamber in which the atmosphere was saturated with 95% N2/5% CO2 by continuously blowing through gas at 10 L/min for ten minutes before being sealed and placed in the incubator for 170 mins (total time of hypoxia was therefore 180 mins). At the end of the period of hypoxia, cultures were returned to normoxic SFM (+PI) and placed back in the incubator for 21 hours. The freeradical scavenger MnTBAP (100 μM) was used as a positive neuroprotective control.
# (§3) Neuronal damage was assessed using ImageJ software running on a PC. Images were captured using a monochrome CCD camera and saved for otlline analysis. Light transmission images were captured prior to the addition of drugs, and PI fluorescence images recorded at the end of the 24-hour recovery period. The area of the CA1 region was determined from the transmission image. The area of PI fluorescence in the CA1 was measured using the threshold function on ImageJ, and neuronal damage expressed as the percentage of the CA1 in which PI fluorescence was detected above background. Morrison et al, Br. J. Pharmacol., 137:1255-1268 (2002).
# [2] = test system: NMDA-induced neurotoxicity in CA1 region of organotypic hippocampal slice cultures; experiment: NMDA-induced neurotoxicity in organotypic hippocampal slice cultures; type: cell-based, Wistar rat; settings: 10 μM NMDA 3 hours, NMDA alone 35.1±[…]
# Procedure: as §1, §2
# At the end of this period, cultures were returned to fresh SFM for 21 hours prior to determination of neuronal death by PI imaging.
# (§4) Neuronal damage was assessed using ImageJ software running on a PC. […] Light transmission images were captured prior to the addition of drugs, and PI fluorescence images recorded at the end of the 24-hour recovery period. The area of the CA1 region was determined from the transmission image. […]
# [3] = test system: NMDA-induced neural toxicity in cortical neurons; experiment: NMDA-induced neural toxicity in cortical neurons (LDH release); type: cell-based, rat (Wistar, fetal); settings: 200 μM NMDA 24 h
# Procedure: The cortical tissues were dissociated to single cells by gentle trituration. […] The cell suspension was centrifuged at 310×g for 3 min and the resulting pellets were resuspended in the medium described above.
# [4] = test system: dopamine turnover in mice striatum; experiment: Dopamine, DOPAC and HVA content / dopamine turnover in mice striatum (HPLC-ECD); type: in vivo, C57BL/6 mice; settings: oral; for dopamine turnover: monotherapy vs combination, mice striatum (FIG. 3)
# Procedure: C57BL/6 mice (SLC, Shizuoka, Japan) were used for the experiment. […] The two drugs were orally administered by gavage 1 hour before sampling. At the time the mice were sacrificed, both striata were rapidly dissected and were frozen by liquid nitrogen. The samples were subsequently sonicated in 0.5 ml of chilled 0.5 M perchloric acid containing 0.1 M EDTA, and centrifuged at 13000 rpm for 15 min at 4° C. Then monoamine levels were measured by HPLC with electrochemical detection. Supernatant aliquots of 20 μl were separated over an Eicompak SC5-ODS column (3×150 mm; Eicom, Japan) with mobile phase of 17% methanol, 83% 0.1M acetate/citrate buffer (pH 3.5) containing 190 mg/ml sodium 1-octanesulfonate and 50 mg/ml EDTA, and a flow rate of 0.65 ml/min. Peaks of dopamine, DOPAC, HVA, 5-HT, and 5-HIAA were quantified by area integration with PowerChrom (eDAQ, Australia), and concentrations were expressed as nanograms per milligram of striatal tissue.
# [5] = test system: AMPA-mediated neurodegeneration in CA1 region of organotypic hippocampal slice cultures; experiment: AMPA toxicity in organotypic hippocampal slice cultures (PI fluorescence in CA1); type: cell-based, Wistar rat
# Procedure: as §1, §2
# (1) AMPA: Cultures were transferred to fresh SFM (+PI) containing 30 μM S-AMPA for 3 hours under normal culture conditions. At the end of this period, cultures were returned to fresh SFM for 21 hours prior to determination of neuronal death by PI imaging. GYK152466 (30 μM) was used as a positive, neuroprotective control.
# as §3
# [6] = test system: OGD-induced neurotoxicity in CA1 region of organotypic hippocampal slice cultures; experiment: Oxygen-glucose deprivation (OGD) in organotypic hippocampal slice cultures (PI fluorescence in CA1); type: cell-based, Wistar rat
# Procedure: as §1, §2
# (2) Oxygen-Glucose Deprivation (OGD): Experimental ischaemia was performed by exposing cultures to oxygen-glucose deprivation (OGD) as described previously. Pringle et al, Brain Research, 755:36-46 (1997); Pringle et al, Stroke, 27:2124-2130 (1996); Morrison et al, Br. J. Pharmacol., 137:1255-1268 (2002). OGD was induced by transferring cultures to glucose-free SFM (+PI) which had been saturated with 95% N2/5% CO2. Culture plates (without lids) were then sealed into an airtight chamber in which the atmosphere was saturated with 95% N2/5% CO2 by continuously blowing through gas at 10 L/min for ten minutes before being sealed and placed in the incubator for 50 mins (total time of OGD was therefore 60 mins). At the end of the period of OGD cultures were returned to normoxic SFM containing PI and placed back in the incubator for 23 hours.
# as §3
# [7] = test system: duroquinone-induced injury in CA1 region of organotypic hippocampal slice cultures; experiment: Free radical-mediated toxicity (duroquinone) in organotypic hippocampal slice cultures; type: cell-based, Wistar rat; settings: 100 μM duroquinone 3 hours, duroquinone alone 51.0±3.4%
# Procedure: as §1
# as §2, with “below. […]” for “below.”
# as §4
# [8] = C57BL/6, mouse, in vivo, po, 1 h
# [9] = 1 hour before sampling (FIG. 2)
smiles,measurement,setting,value
"N#Cc1ccccc1-c1cc(-c2ccccn2)cn(-c2ccccc2)c1=O [2-(2-oxo-1-phenyl-5-pyridin-2-yl-1,2-dihydropyridin-3-yl)benzonitrile]",damage in CA1 (PI fluorescence),"[1]; 0.1 μM, 3 hours hypoxia, first set, hypoxia alone 45.1±3.5%",24.8±6.3%
same,damage in CA1 (PI fluorescence),"[1]; 0.1 μM, hypoxia, second set, hypoxia alone 36.4±[…]",36.7±4.2%
same,damage in CA1 (PI fluorescence),"[1]; 0.5 μM, hypoxia, repeated experiment, hypoxia alone 36.9+[…]",27.1±3.5%
same,damage in CA1 (PI fluorescence),"[1]; 5 μM, 3 hours hypoxia, first set, hypoxia alone 45.1±3.5%",3.9±1.8%
same,damage in CA1 (PI fluorescence),[2]; 0.5 μM,29.1±2.9%
same,concentration from which the effect reached a plateau,[3],≥ 0.3 mM
same,neuronal survival (LDH release),[3]; drugs 24 hours before and during exposure (FIG. 5),showed effects
same,content of HVA in striatum,"[4]; 1 mg/kg, 1 hour before sampling (FIG. 1)",elevated
same,dopamine turnover,[4],modulated dopamine turnover but neither reached significance
same,damage in CA1 (PI fluorescence),"[5]; 0.1 μM, 30 μM AMPA 3 hours, AMPA alone 65.1±1.7%",63.9±2.6%
same,damage in CA1 (PI fluorescence),"[5]; 0.3 μM, 30 μM AMPA 3 hours, AMPA alone 65.1±1.7%",50.4±2.5%
same,"area of PI fluorescence, % of CA1","[5]; 0.5 μM, 30 μM AMPA, AMPA alone 62.4±[…]",33.6±4.0%
same,damage in CA1 (PI fluorescence),"[5]; 3 μM, 30 μM AMPA 3 hours, AMPA alone 65.1±1.7%",0.1±0.1%
same,EC50,"[5]; Rattus norvegicus, 3 h, read-out: EC50 in this model of AMPA toxicity",500 nM
same,damage in CA1 (PI fluorescence),"[6]; 0.1 μM, 60 minutes OGD, initial set, OGD alone 50.6±5.2%",64.4±3.6%
same,damage in CA1 (PI fluorescence),"[6]; 0.5 μM, OGD second series, OGD alone 44.8±[…]",55.3±3.1%
same,effect on OGD-induced PI fluorescence,"[6]; any other concentration assessed (up to 3 μM), 60 minutes OGD",no significant effect
same,EC50 in OGD model,"[6]; six-point concentration-response curve, 60 minutes OGD",could not be established
same,damage in CA1 (PI fluorescence),[7]; 0.5 μM,69.1±4.0%
"CC1=NN=C(c2ccc(N)cc2)c2cc3c(cc2C1)OCO3 [GYK152466, reference compound]",damage in CA1 (PI fluorescence),"[5]; 30 μM test substance, 30 μM AMPA 3 hours, AMPA alone 65.1±1.7%",14.3±2.3%
same,damage in CA1 (PI fluorescence),"[5]; 30 μM, pre-incubation time experiments, AMPA alone 46.5±5.0%",21.7±2.7%
same,damage in CA1 (PI fluorescence),"[6]; 30 μM, 60 minutes OGD, initial set, OGD alone 50.6±5.2%",36.9±3.6%
"C[C@]12N[C@H](Cc3ccccc31)c1ccccc12 [MK-801, reference compound]",damage in CA1 (PI fluorescence),[2]; 10 μM,0.0±0.0%
"O=C(O)c1ccc(/C2=C3\C=CC(=N3)/C(c3ccc(C(=O)O)cc3)=c3/cc/c4[n]3[Mn]([Cl])[n]3c2ccc3/C(c2ccc(C(=O)O)cc2)=C2/C=CC(=N2)\C=4c2ccc(C(=O)O)cc2)cc1 [MnTBAP, reference compound]",damage in CA1 (PI fluorescence),"[1]; 100 μM, 3 hours hypoxia, first set, hypoxia alone 45.1±3.5%",0.2±0.1%
same,damage in CA1 (PI fluorescence),"[1]; 100 μM, hypoxia, repeated experiment, hypoxia alone 36.9+[…]",0.8±0.4%
same,damage in CA1 (PI fluorescence),"[1]; 100 μM, hypoxia, second set, hypoxia alone 36.4±[…]",0.0±0.0%
same,damage in CA1 (PI fluorescence),"[6]; 100 μM, 60 minutes OGD, initial set, OGD alone 50.6±5.2%",0.1±0.0%
same,damage in CA1 (PI fluorescence),"[6]; 100 μM, OGD second series, OGD alone 44.8±[…]",0.6±0.2%
same,damage in CA1 (PI fluorescence),[7]; 100 μM,0.1±0.0%
"COc1cc2c(cc1OC)C(=O)C(CC1CCN(Cc3ccccc3)CC1)C2 (stereo not shown) [donepezil, 1-benzyl-4-((5,6-dimethoxy-1-indanon)-2-yl)methylpiperidine]",dopamine turnover,[4],modulated dopamine turnover but neither reached significance
same,DPAC/DA,[4]; [9],increased significantly
same,HVA/DA,[4]; [9],increased significantly
same,content of dopamine in striatum,[4]; [9],reduced the content of dopamine significantly
same,dose at which peripheral side effect was shown,[8],≥ 7.5 mg/kg
